Test results as given in US20030109448A1, “Methods of promoting uptake and nuclear accumulation of polyamides in eukaryotic cells” (priority 2001, published 2003).
“Also recorded” adds a separate entry of the source.

How the values were obtained:
RSF cells = test: Effect of P-gp inhibitors on intracellular distribution of Compound 1; type: cell-based, human
[1] = test system: HCT116 human colon cancer cells; test: Intracellular distribution of fluorescent-labeled polyamides by fluorescence microscopy; type: cell-based; details: HCT116, overnight at 37° C.
Protocol: Previously established low passage number human colon cancer HCT116 cells were cultured as monolayers and maintained at 37° C. in a humidified incubator with 5% CO2 in buffered medium consisting of RPMI 1640 (GIBCO, Life Technologies, Rockville, Md.) supplemented with 2 mM L-glutamine, 10% fetal bovine serum (GIBCO), 100 Units/ml Penicillin-Streptomycin and 25 μg/ml Gentamicin. Previously established low passage number human rheumatoid synovial fibroblasts (RSFs) were cultured in DMEM (GIBCO 11995-040) supplemented with 15% FBS, 1% glutamine, and 50 µg/ml Gentamycin.
HCT116 cells or RSF cells (8×10^5) were plated on 25-mm round glass coverslips in 30-mm wells and incubated for 24 hr to allow cells to adhere. […]
Live wet mounted cells were examined and photographed using an Olympus AX70 Microscope equipped with fluorescence optics and a Sony 3CCD color video camera. DAPI was detected using a bandpass 405±20 nm excitation filter, a 420 nm dichroic beam splitter, and a ≧450 emission filter (DAPI filter set). BODIPY and fluorescein conjugated polyamides were selectively detected using a bandpass 485±11 nm excitation filter, a 505 nm dichroic beam splitter, and a 530±15 nm emission filter (fluorescein filter set). Organelle-specific probes were detected using a 546+/−5 nm excitation filter, a 570 nm dichroic beam splitter and a 590 nm longpass emission filter (Rhodamine filter set). […]

Compound | effect on intracellular distribution of Compound 1 (RSF cells) | location of Compound 1 green fluorescence in presence of inhibitor (RSF cells) | fluorescent-filled vesicles [1] | nuclear fluorescence (nuclear localization) [1]
COc1ccc(CCN(C)CCCC(C#N)(c2ccc(OC)c(OC)c2)C(C)C)cc1OC (stereo not shown) [verapamil] | dramatic reduction in cytoplasmic fluorescence accompanied by a re-distribution of Compound 1 to the nucleus | observed in the nuclei in the presence of verapamil |  | 
Im-Im-Py-Py-γ-Py-Py-Py-Py-β-Ta-FITC [Compound 2] |  |  | absent | nuclei are brightly stained; also recorded: observed in the nuclei of the cells
